Values after ≈ are worked out from the molar mass of the structure shown. Read-outs that look alike come from different tables or passages of the source.
Assays:
Format in all cases: cell-based
E. coli Neumann = test: MIC by series dilution method; conditions: Escherichia coli
Experimental: (§1) The minimum inhibitory concentration (MIC) were determined by a series dilution method on Iso-Sensitest agar (Oxoid). For each test substance, a series of agar plates each comprising concentrations of the active compound decreasing by double dilution in each case was prepared. The agar plates were inoculated with a multipoint inoculator (Denley). Overnight cultures of the pathogens which had been diluted beforehand such that each inoculation point comprised about 10^4 colony-forming particles were used for the inoculation. The inoculated agar plates were incubated at 37° C. and the germ growth was read off after about 20 hours. The MIC value (μg/ml) indicates the lowest active compound concentration at which no growth was detectable with the naked eye.

Klebs. 57 USA = test: MIC by series dilution method; conditions: 37° C., about 20 hours
Experimental: as §1

Psdm. Bonn = test: MIC by series dilution method; conditions: 37° C., about 20 hours
Experimental: as §1

Staph. 25701 = test: MIC by series dilution method
Experimental: as §1, with “eye. […]” for “eye.”

Staph. 48N = test: MIC by series dilution method
Experimental: as §1, with “eye. […]” for “eye.”

Staph. 9TV = test: MIC by series dilution method
Experimental: as §1, with “eye. […]” for “eye.”

Staph. 133 = test: MIC by series dilution method
Experimental: as §1, with “eye. […]” for “eye.”

[1] = system: Mycobacterium smegmacis DSM 43465; test: MIC in microtiter plates (Mycobacterium); conditions: DSM43465, 37° C., 3 to 5 days
Experimental: (§2) The microtiter plates were incubated at 37° C. and read off after about 20 hours (Staph) or after 3 to 5 days (Mycobacterium). The MIC value (μg/ml) indicates the lowest concentration of active substance at which no growth was detectable.

[2] = system: Mycobacterium smegmacis DSM 43299; test: MIC in microtiter plates (Mycobacterium); conditions: DSM43299, 37° C., 3 to 5 days
Experimental: as §2

[3] = system: Mycobacterium smegmacis DSM 43061; test: MIC in microtiter plates (Mycobacterium); conditions: DSM43061, 37° C., 3 to 5 days
Experimental: as §2

[4] = system: Mycobacterium smegmacis DSM 43277; test: MIC in microtiter plates (Mycobacterium); conditions: DSM43277, 37° C., 3 to 5 days
Experimental: as §2

[5] = system: Mycobacterium smegmacis DSM 43464; test: MIC in microtiter plates (Mycobacterium); conditions: DSM43464, 37° C., 3 to 5 days
Experimental: as §2

[6] = system: Mycobacterium smegmacis DSM 43078; test: MIC in microtiter plates (Mycobacterium); conditions: DSM43078, 37° C., 3 to 5 days
Experimental: as §2

[7] = Staph. 25701, 37° C., about 20 hours, read-out: MIC
[8] = Staph. 48N, 37° C., about 20 hours, read-out: MIC
[9] = Staph. 9TV, 37° C., about 20 hours, read-out: MIC
[10] = Staph. 133, 37° C., about 20 hours, read-out: MIC
[11] = E. coli Neumann, 37° C., about 20 hours, read-out: MIC

SMILES | MIC (E. coli Neumann; 20 h) | MIC (Klebs. 57 USA) | MIC (Psdm. Bonn) | MIC (Staph. 25701; 20 h) | MIC (Staph. 48N; 20 h) | MIC (Staph. 9TV; 20 h) | MIC (Staph. 133; 20 h) | MIC (Staph. 25701; [7]) | MIC (Staph. 48N; [8]) | MIC (Staph. 9TV; [9]) | MIC (Staph. 133; [10]) | MIC [1] | MIC [2] | MIC [3] | MIC [4] | MIC [5] | MIC [6] | MIC (E. coli Neumann; [11])
COP(=O)(NC[C@H]1CN(c2ccc3c(c2)sc(=O)n3C)C(=O)O1)OC [Example 17] | > 64 µg/mL | > 64 µg/mL | > 64 µg/mL | 8 µg/mL (≈ 20.7 µM) | 8 µg/mL (≈ 20.7 µM) | 8 µg/mL (≈ 20.7 µM) | 8 µg/mL (≈ 20.7 µM) |  |  |  |  |  |  |  |  |  |  | 
CC(=O)NC[C@H]1CN(c2ccc3c(c2)sc(=O)n3C)C(=O)O1 [Example 18] | > 64 µg/mL | > 64 µg/mL | > 64 µg/mL |  |  |  |  | 0.25 µg/mL (≈ 0.778 µM) | 0.25 µg/mL (≈ 0.778 µM) | 0.06 µg/mL (≈ 0.187 µM) | 0.25 µg/mL (≈ 0.778 µM) | 0.5 µg/mL (≈ 1.56 µM) | 1 µg/mL (≈ 3.11 µM) | 0.25 µg/mL (≈ 0.778 µM) | 0.25 µg/mL (≈ 0.778 µM) | 1 µg/mL (≈ 3.11 µM) | 0.25 µg/mL (≈ 0.778 µM) | 
CCn1c(=O)sc2cc(N3C[C@H](CNC(C)=O)OC3=O)ccc21 [Example 22] | > 64 µg/mL | > 64 µg/mL | > 64 µg/mL |  |  |  |  | 1 µg/mL (≈ 2.98 µM) | 1 µg/mL (≈ 2.98 µM) | 0.5 µg/mL (≈ 1.49 µM) | 1 µg/mL (≈ 2.98 µM) |  |  |  |  |  |  | 
CC(=O)NC[C@H]1CN(c2ccc3[nH]c(=O)oc3c2)C(=O)O1 [Example 24] | > 64 µg/mL | > 64 µg/mL | > 64 µg/mL |  |  |  | 8 µg/mL (≈ 27.5 µM) | 16 µg/mL (≈ 54.9 µM) | 16 µg/mL (≈ 54.9 µM) | 16 µg/mL (≈ 54.9 µM) |  |  |  |  |  |  |  | 
CC(=O)NC[C@H]1CN(c2ccc3c(c2)oc(=O)n3C)C(=O)O1 [Example 37] |  | 64 µg/mL (≈ 210 µM) | 64 µg/mL (≈ 210 µM) |  |  |  |  | 1 µg/mL (≈ 3.28 µM) | 1 µg/mL (≈ 3.28 µM) | 0.5 µg/mL (≈ 1.64 µM) | 1 µg/mL (≈ 3.28 µM) |  |  |  |  |  |  | 16 µg/mL (≈ 52.4 µM)
CC(=O)NC[C@H]1CN(c2ccc3c(c2)oc(=O)n3Cc2ccccc2)C(=O)O1 [Example 38] | > 64 µg/mL | > 64 µg/mL | > 64 µg/mL |  |  |  |  | 4 µg/mL (≈ 10.5 µM) | 4 µg/mL (≈ 10.5 µM) | 1 µg/mL (≈ 2.62 µM) | 4 µg/mL (≈ 10.5 µM) |  |  |  |  |  |  | 
CCOC(=O)Cn1c(=O)oc2cc(N3C[C@H](CNC(C)=O)OC3=O)ccc21 [Example 39] | > 64 µg/mL | > 64 µg/mL | > 64 µg/mL |  |  |  |  | 4 µg/mL (≈ 10.6 µM) | 4 µg/mL (≈ 10.6 µM) | 4 µg/mL (≈ 10.6 µM) | 4 µg/mL (≈ 10.6 µM) |  |  |  |  |  |  | 
CC(=O)NC[C@H]1CN(c2ccc3c(c2)oc(=S)n3C)C(=O)O1 [Example 43] |  | > 64 µg/mL | > 64 µg/mL |  |  |  |  | 0.25 µg/mL (≈ 0.778 µM) | 0.125 µg/mL (≈ 0.389 µM) | 0.125 µg/mL (≈ 0.389 µM) | 0.25 µg/mL (≈ 0.778 µM) |  |  |  |  |  |  | > 32 µg/mL
CCn1c(=S)sc2cc(N3C[C@H](CNC(C)=O)OC3=O)ccc21 [Example 44] | > 64 µg/mL | > 64 µg/mL | > 64 µg/mL |  |  |  |  | 0.5 µg/mL (≈ 1.42 µM) | 0.5 µg/mL (≈ 1.42 µM) | 0.5 µg/mL (≈ 1.42 µM) | 0.5 µg/mL (≈ 1.42 µM) |  |  |  |  |  |  | 
CC(=O)NC[C@H]1CN(c2ccc3c(c2)oc(=O)n3C(C)C)C(=O)O1 [Example 47] |  | 64 µg/mL (≈ 192 µM) | > 64 µg/mL |  |  |  |  | 0.5 µg/mL (≈ 1.5 µM) | 0.5 µg/mL (≈ 1.5 µM) | 0.25 µg/mL (≈ 0.75 µM) | 0.5 µg/mL (≈ 1.5 µM) |  |  |  |  |  |  | 32 µg/mL (≈ 96 µM)
Cn1c(=O)sc2cc(N3C[C@H](CNC(=O)C4CC4)OC3=O)ccc21 [Example 54] |  |  |  |  |  |  |  |  |  |  |  | 4 µg/mL (≈ 11.5 µM) | 4 µg/mL (≈ 11.5 µM) | 4 µg/mL (≈ 11.5 µM) | 2 µg/mL (≈ 5.76 µM) | 16 µg/mL (≈ 46.1 µM) | 1 µg/mL (≈ 2.88 µM) | 
CCC(=O)NC[C@H]1CN(c2ccc3c(c2)sc(=O)n3C)C(=O)O1 [Example 56] | 64 µg/mL (≈ 191 µM) | > 64 µg/mL | > 64 µg/mL |  |  |  |  | 0.5 µg/mL (≈ 1.49 µM) | 0.5 µg/mL (≈ 1.49 µM) | 0.25 µg/mL (≈ 0.745 µM) | 0.5 µg/mL (≈ 1.49 µM) | 0.5 µg/mL (≈ 1.49 µM) | 1 µg/mL (≈ 2.98 µM) | 1 µg/mL (≈ 2.98 µM) | 0.25 µg/mL (≈ 0.745 µM) | 4 µg/mL (≈ 11.9 µM) | 1 µg/mL (≈ 2.98 µM) | 
Cn1c(=O)sc2cc(N3C[C@H](CNC(=O)C4CCC4)OC3=O)ccc21 [Example 62] | > 64 µg/mL | > 64 µg/mL | > 64 µg/mL |  |  |  |  | 1 µg/mL (≈ 2.77 µM) | 1 µg/mL (≈ 2.77 µM) | 0.5 µg/mL (≈ 1.38 µM) | 1 µg/mL (≈ 2.77 µM) |  |  |  |  |  |  | 
COC(=O)NC[C@H]1CN(c2ccc3c(c2)sc(=O)n3C)C(=O)O1 [Example 70] | > 64 µg/mL | > 64 µg/mL | > 64 µg/mL |  |  |  |  | 0.5 µg/mL (≈ 1.48 µM) | 0.5 µg/mL (≈ 1.48 µM) | 0.5 µg/mL (≈ 1.48 µM) | 0.5 µg/mL (≈ 1.48 µM) | 1 µg/mL (≈ 2.96 µM) | 2 µg/mL (≈ 5.93 µM) | 0.25 µg/mL (≈ 0.741 µM) | 0.5 µg/mL (≈ 1.48 µM) | 8 µg/mL (≈ 23.7 µM) | 0.125 µg/mL (≈ 0.371 µM) | 
CCCCCn1c(=O)oc2cc(N3C[C@H](CNC(C)=O)OC3=O)ccc21 [Example 84] | 64 µg/mL (≈ 177 µM) | > 64 µg/mL | > 64 µg/mL |  |  |  |  | 1 µg/mL (≈ 2.77 µM) | 1 µg/mL (≈ 2.77 µM) | 0.5 µg/mL (≈ 1.38 µM) | 1 µg/mL (≈ 2.77 µM) |  |  |  |  |  |  | 
CC(=O)NC[C@H]1CN(c2ccc3c(c2)oc(=NC(=O)C2CC2)n3C)C(=O)O1 [Example 94] | 64 µg/mL (≈ 172 µM) | > 64 µg/mL | > 64 µg/mL |  |  |  |  | 0.5 µg/mL (≈ 1.34 µM) | 0.5 µg/mL (≈ 1.34 µM) | 0.25 µg/mL (≈ 0.671 µM) | 0.5 µg/mL (≈ 1.34 µM) |  |  |  |  |  |  | 

Reference: US6069160A, “Heteroatom-containing benzocyclopentane-oxazolidinones” (Bayer Aktiengesellschaft, priority 1995, dated 2000)
